Values of other authors as cited in patent US20070122456A1, “Nicotine and Cocoa Powder Compositions” (priority 2001, published 2007).

Details: intravenous infusion; smokers and non-smokers similarly

Question: Which “increase of resting metabolic rate” value does the source give for `CN1CCCC1c1cccnc1` (stereo not shown) [nicotine] here?
Answer: Its value is 6.5%.
